Measured values published in PubChem BioAssay AID1902 (Broad Institute, 2009).
Activity calls are given as the source filed them.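 The calls were made as follows: active = EC50 no more than a set limit of log units above the highest dose; inactive = the rest.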

Target: S. pyogenes SKKanGAS, kanamycin survival, BacTiterGlo, 6 h
Assay: S. pyogenes SKKanGAS kanamycin growth inhibitors – SKKanGAS strain, luminescence, dose confirmation, streptokinase promoter inhibitor project, dose response (AID 1902);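 also: lower survival reflects blocked streptokinase promoter driving kanamycin resistance gene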

| Compound | EC50 |
| --- | --- |
| CCOC(=O)c1c(C)[nH]c(C(=O)N/N=C/c2cc([N+](=O)[O-])ccc2O)c1C | 4390 nM |
| c1ccc(N(c2ccccc2)c2nc(N3CCCC3)nc(-n3ccnc3)n2)cc1 | 6120 nM |
| C/C(=N\NC(=O)COc1ccc(C)cc1C(C)C)c1cc2ccccc2o1 | 11000 nM |
| Cc1cccc(Nc2nc(N)nc(CN3CCN(c4ccccc4F)CC3)n2)c1 | 15400 nM |
| Cc1onc(-c2ccccc2)c1C(=O)NNC(=S)NC(=O)/C=C/c1cccs1 | 839 nM |
| Cc1ccc(S(=O)(=O)Nc2ccc(Cl)cc2)cc1NC(=O)c1cc2c(s1)CCCC2 | 6630 nM |
| CCCCNc1c(-c2cccc(-c3ccc(OC)cc3)c2)nc2ccc(C)cn12 | 4050 nM |
| CCCCn1c(CCCNC(=O)c2ccco2)nc2ccccc21 | > 15000 nM (inactive) |
| CCc1ccc(OCC(=O)NNC(=S)NC(=O)C2CCCCC2)c(Br)c1 | < 60 nM |
| COc1cc(C(=O)N/N=C/c2ccc(OC(=O)c3ccccc3Cl)c(OC)c2)ccc1O | 5640 nM |
| Cc1ccc(NS(=O)(=O)c2ccc(Cl)c(NC(=S)NC(=O)C3CCCCC3)c2)cc1Cl | 1130 nM |
| CCCCCNC(=O)c1ccc2c(=O)[nH]c3c(C(=O)NCC4CCCO4)sc(=S)n3c2c1 (stereo unspecified) | 2170 nM |
| CCCC(NC(=S)NCC1CCCO1)C12CC3CC(CC(C3)C1)C2 (stereo unspecified) | 5790 nM |
| COc1ccc(OCCCC(=O)Nc2nc(-c3ccccn3)cs2)cc1 | 309 nM |
| COc1ccc(Cc2n[nH]c(=S)n2NC(=O)Nc2ccc(Cl)c(Cl)c2)cc1 | 4080 nM |
| O=C(Cn1sc2ccccc2c1=O)NC12CC3CC(CC(C3)C1)C2 | 1120 nM |
| CCOc1ccc2c(c1)c1nnc(SCC(=O)N3CCC(C)CC3)nc1n2C | 15600 nM |
| COc1ccc2oc(C(=O)Nc3nc(-c4ccccn4)cs3)c(C)c2c1 | 1190 nM |
| CC(=O)Nc1ccc(S(=O)(=O)N2CCN=C2SCc2ccc(C)cc2)cc1 | > 15000 nM (inactive) |
| CCOC(=O)c1c(NS(=O)(=O)c2ccc(Br)cc2)sc2c1CCC2 | 1600 nM |
| Cc1ccc(-c2cnc(N)n2C)cc1C | 4130 nM |
| COC(=O)[C@@]12CCCN1[C@H](c1ccc(-c3cccc(Cl)c3)c(OC)c1)[C@H]1C(=O)N(C)C(=O)[C@H]12 | > 15000 nM (inactive) |

| Compound | EC50 |
| --- | --- |
| Cc1nc2ccccc2c(=O)n1/N=C/c1ccc2ccccc2c1O | > 15000 nM (inactive) |
| COC(=O)c1ccc(C(=O)OC)c(NC(=O)CN(C)Cc2cccc(Cl)c2Cl)c1 | 7700 nM |
| COc1ccc(Cl)cc1/C=C/c1ccc2cccc(O)c2n1 | 388 nM |
| COc1ccc(CCN2CC(C(=O)NCCc3ccccn3)CCC2=O)cc1 (stereo unspecified) | > 15000 nM (inactive) |
| Oc1c(C(Nc2ccccn2)c2ccccn2)ccc2cccnc12 (stereo unspecified) | 10700 nM |
| CCOC(=O)c1ccc(Oc2cn[nH]c2-c2ccc(OCC(=O)NN)cc2O)cc1 | 357 nM |
| O=[N+]([O-])c1cc(S(=O)(=O)Nc2cccc(Cl)c2)ccc1N=Nc1c(O)[nH]c2ccccc12 | 3610 nM |
| COc1ccc(C(=O)O)cc1NC(=S)NC(=O)c1ccc(-c2ccc(Cl)cc2)o1 | 2300 nM |
| Cc1ccc(C)c(CN2CCCN(Cc3cc(C)ccc3C)S2(=O)=O)c1 | 2580 nM |
| Cc1ccc(C(=O)NC(=S)NNC(=O)c2ccccc2O)cc1 | 459 nM |
| Oc1c(C(Nc2cccc(C(F)(F)F)c2)c2cccnc2)ccc2cccnc12 (stereo unspecified) | 1530 nM |
| CC(C)=CCOc1ccc([C@@H]2COc3c(ccc4c3C=CC(C)(C)O4)C2)c(O)c1 | 1840 nM |
| COc1ccc(NC(=S)N=Nc2c(O)[nH]c3ccccc23)cc1 | 1090 nM |
| COc1ccc(NC(C)C(=O)N/N=C/c2c(O)ccc3ccccc23)cc1 (stereo unspecified) | 1140 nM |
| CCCc1cc(NCc2ccccn2)n2nc(C)c(-c3ccccc3)c2n1 | 6400 nM |
| Cn1c2ccccc2c(=O)c2c(=O)n(-c3ccc(F)cc3)c(-c3cccs3)nc21 | 4760 nM |
| CSc1cccc(NC(=O)OC2CCCCCCCCCCC2)c1 | 4100 nM |
| NC(=O)c1cc(C(=O)Cc2ccccc2)c[nH]1 | 2230 nM |
| CCOC(=O)C1CCN(C(=O)c2ccc3c(=O)n4nc(Nc5cc(C)ccc5C)sc4nc3c2)CC1 | 8200 nM |
| N#Cc1c(-c2ccccc2)nc(SCC(=O)N2c3ccccc3Sc3ccccc32)[nH]c1=O | 3870 nM |
| O=C(Cn1nc(CNc2ccc(Cl)cc2)[n+]2c1CCCCC2)c1ccc(Br)cc1 | 10800 nM |
| CN(C)Cc1nc2ccccc2c(=O)n1Cc1nc(-c2cc3ccccc3o2)cs1 | 1820 nM |

| Compound | EC50 |
| --- | --- |
| CN(C)c1ccc(O)c2c1CC1CC3[C@@H](N(C)C)C(=O)C(C(N)=O)=C(O)[C@]3(O)C(=O)C1=C2O (stereo partly specified) | 95 nM |
| C/C(=N\NS(=O)(=O)c1ccc(C)cc1)c1ccc(C)o1 | > 15000 nM (inactive) |
| c1cn2c(NC3CCCCC3)c(-c3ccc(SC4CCCCC4)cc3)nc2cn1 | 1970 nM |
| CC(=O)O[C@H]1CC[C@]2(C)[C@H]3CC=C4[C@@H]5[C@@H](C)[C@H](C)CC[C@]5(C(=O)O)CC[C@@]4(C)[C@]3(C)CC[C@H]2C1(C)C | 2830 nM |
| Cn1c(C(=O)N2CCN(c3ccc([N+](=O)[O-])cc3)CC2)cc2c(=O)[nH]c3ccccc3c21 | 4560 nM |
| Oc1cccc(/C=N/N(Cc2ccccc2)c2ccccc2)c1 | 6020 nM |
| COc1ccc2nc(N3C(=O)CNC3=S)sc2c1 | 2890 nM |
| Oc1c(N=NC(=S)Nc2ccccc2F)c2ccccc2n1Cc1cccc(Cl)c1 | 658 nM |
| COc1cc2nc(=S)n3[nH]c(COc4ccccc4C)nc3c2cc1OC | 2280 nM |
| COC(=O)[C@@H]1[C@@H](C#N)C2(c3ccccc3-c3ccccc32)N(c2ccc(Cl)cc2)N1C#N | 9760 nM |
| CCCC(=O)NCCc1ccc(F)cc1 | > 15000 nM (inactive) |
| CCCCCCOC(=O)/C=C/c1c(C)[nH]c(=O)[nH]c1=O | 475 nM |
| Cc1ccccc1Nc1c(-c2ccccn2)nc2c(C)cccn12 | 397 nM |
| Cc1cc(C)c(CSc2ncc(-c3ccc([N+](=O)[O-])cc3)[nH]2)c(C)c1 | 4190 nM |
| Cc1ccc(OCC(=O)Nc2nc(-c3ccccn3)cs2)c(C)c1 | 1990 nM |
| O=C(NC1=NCCS1)c1cc(-c2ccccc2)nn1-c1ccccc1 | 6060 nM |
| c1ccc(N2CCN(c3nc(-c4ccccn4)nc4ccccc34)CC2)cc1 | < 60 nM |
| O=c1c2c(nc(NCCO)n1CC1CCCCC1)-c1ccccc1CC21CCCC1 | 4160 nM |
| COc1ccc(NS(=O)(=O)c2ccc3ccccc3c2)c2ncccc12 | 1200 nM |
| COc1ccc(-c2nnc(NC(=O)c3cc(Cl)ccc3Cl)o2)cc1 | 814 nM |
| Cc1cccc(NC(=S)/N=C(\N)Nc2nc(C)c3ccc(C)cc3n2)c1 | > 15000 nM (inactive) |
| Oc1c(C(c2ccccn2)N2CCCCC2)cc(Cl)c2cccnc12 (stereo unspecified) | 8880 nM |

| Compound | EC50 |
| --- | --- |
| Cc1cc2n(n1)C(c1c[nH]c3ccccc13)Nc1ccccc1-2 (stereo unspecified) | 7650 nM |
| Oc1ccccc1N=Nc1ccccc1O | 961 nM |
| O=C1CCSc2ccc(Cl)cc2N1Cc1ccc(Cl)cc1 | 3930 nM |
| CC(C)(C)c1cc(C(=O)N/N=C/c2ccc([N+](=O)[O-])s2)n[nH]1 | 7400 nM |
| C/C(N)=C(/C#N)C(=O)CSc1nc2cc(Cl)ccc2c(=O)n1Cc1ccco1 | 8740 nM |
| Cc1cc(N2CCN(c3ccccc3Cl)CC2)n2cc(-c3ccccc3)nc2n1 | 6630 nM |
| O=C(NNc1ccccc1Cl)C(O)(c1cccc(C(F)(F)F)c1)c1cccc(C(F)(F)F)c1 | 2610 nM |
| O=C(CCCSc1ccccc1)Nc1nc(-c2ccccn2)cs1 | 6170 nM |
| O=C(O)CCCN1C(=O)/C(=C\c2ccc(-c3nc4ccccc4s3)o2)SC1=S | 4890 nM |
| COc1ccc2nc(C3CCCCC3)nc(C3CCCCC3)c2c1 | 2660 nM |
| CNC(=O)C(=O)NCC1OCCN1S(=O)(=O)c1ccc(OC)c(OC)c1 (stereo unspecified) | > 15000 nM (inactive) |
| C=CC1=C(C(=O)O)N2C(=O)[C@@H](NC(=O)/C(=N/OCC(=O)O)c3csc(N)n3)[C@H]2SC1 | < 60 nM |
| COc1cccc(NC(=S)NN=C2CCCCCC2)c1 | 1770 nM |
| Cc1ccc(-c2nn(-c3ccccc3)cc2/C=N/NC(=O)CSc2nnc(C)n2-c2ccccc2)cc1 | 9840 nM |
| COc1cc(C)ccc1OCCCOc1ccccc1Br | 5900 nM |
| O=C(O)CN1C(=O)/C(=C\c2ccccc2OCc2ccc(Cl)cc2Cl)SC1=S | 2730 nM |
| COc1cccc(C(=O)N/N=C(/c2ccccc2)c2ccccn2)c1 | 8860 nM |
| Cc1ccc(Cc2cnc(N3C(=N)SC(C)C3=O)s2)cc1 (stereo unspecified) | 298 nM |
| CCOC(=O)c1cnc(-n2nc(C)cc2C)nc1NC1CCCC1 | 2580 nM |
| CCCc1ccc(OCC(=O)NNC(=S)NC(=O)c2ccco2)cc1 | < 60 nM |
| O=C1/C(=N\S(=O)(=O)c2cccs2)C([n+]2cccc(Cc3ccccc3)c2)=C([O-])c2ccccc21 | 1680 nM |
| Oc1c(Br)cc(Br)cc1/C=N/NC(=S)N[C@H]1CC2C=CC1C2 (stereo partly specified) | 150 nM |

| Compound | EC50 |
| --- | --- |
| CC(C)c1ccc(-n2cccc2/C=C2/C(=N)N3C=CSC3=NC2=O)cc1 | 3280 nM |
| CC(C)CCC(CCNCc1ccccn1)c1ccc(Cl)cc1 (stereo unspecified) | 13200 nM |
| Cc1ccc(CN2C(=O)c3ccccc3NC2c2cc(Br)ccc2O)cc1 (stereo unspecified) | 4310 nM |
| CCCCCCCCCc1nc2sc3c(c2c(=O)n1NC(=O)c1ccccc1[N+](=O)[O-])CC(C)(C)OC3 | 2750 nM |
| COc1ccc(C(Nc2cc(C)ccn2)c2ccc3ccc(C)nc3c2O)cc1 (stereo unspecified) | 12500 nM |
| COC(=O)c1cc(S(=O)(=O)n2nc(C)c(Br)c2C)c(Cl)cc1Cl | 1010 nM |
| O=S(=O)(NCCSCc1c(Cl)cccc1Cl)c1ccc2c(c1)OCCO2 | 7450 nM |
| Cc1c(C(=O)N/N=C/c2ccc(Cl)cc2)[nH]c2ccc(Cl)cc12 | 2710 nM |
| COc1ccc(/C=C/C(=O)NC(=S)NNC(=O)c2cc(OC)c(OC)c(OC)c2)cc1OC | 1480 nM |
| O=C(N[C@H](CO)[C@H](O)c1ccc([N+](=O)[O-])cc1)C(Cl)Cl | 973 nM |
| O=C(N/N=C/c1c(O)n(Cc2ccco2)c(=O)[nH]c1=O)c1ccccc1O | 2810 nM |
| COC(=O)c1sc(-c2ccc(C(C)(C)C)cc2)cc1NC(=O)CSCC(=O)O | 3910 nM |
| O=C(Nc1nnc(-c2ccc(Cl)cc2)o1)c1ccccc1Br | 1590 nM |
| COC(=O)C1CN(C#N)N(c2ccc(Cl)cc2)C12c1ccccc1-c1ccccc12 (stereo unspecified) | 4210 nM |
| CC/C(=C\C=C\[C@@H]1C=C[C@@H]2CCC[C@H]2[C@@H]1C(=O)c1ccc[nH]1)[C@@H]1O[C@@H]([C@@H](C)C(=O)O)CC[C@@H]1C | 127 nM |
| O=C(c1ccccc1)c1cc2ccc(O)cc2oc1=O | 6030 nM |
| O=C(N/N=C/c1c(O)n(C2CCCCC2)c(=S)[nH]c1=O)c1ccccc1O | 601 nM |
| O=C(NC(=S)NNC(=O)c1ccccc1O)c1ccc(F)cc1 | 1290 nM |
